Data published in publication PMC6366416, “Synthesis and in vitro anticancer activity of certain novel 1-(2-methyl-6-arylpyridin-3-yl)-3-phenylureas as apoptosis-inducing agents” (Journal of Enzyme Inhibition and Medicinal Chemistry, 2019).

Assays:
Test in all cases: NCI one-dose SRB growth inhibition
Format in all cases: cell-based
IGROV1 = conditions: Homo sapiens, IGROV-1, Ovarian Cancer, 48 h, read-out: GI% IGROV1
Procedure, shortened: (§1)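 Run under the NCI Developmental Therapeutics Program protocol at a single dose, with 48 h drug exposure. Growth and viability read by sulforhodamine B staining.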

MALME-3M = conditions: Homo sapiens, Melanoma, 48 h, read-out: GI% MALME-3M
Procedure, shortened: as §1

PC-3 = conditions: Homo sapiens, PC-3, 48 h, Prostate, read-out: GI% PC-3
Procedure, shortened: as §1

Cc1nc(-c2ccc(F)cc2)ccc1NC(=O)Nc1cccc(C(F)(F)F)c1 [Compound 5a, 1-(6-(4-Fluorophenyl)-2-methylpyridin-3-yl)-3-(3-(trifluoromethyl)phenyl)urea]
inhibition at 10 µM (IGROV1): < 10% | inhibition at 10 µM (MALME-3M): < 10% | inhibition at 10 µM (PC-3): > 40%

CCOC(=O)c1ccc(NC(=O)Nc2ccc(-c3ccc(F)cc3)nc2C)cc1 [Compound 5c, Ethyl 4-(3-(6-(4-fluorophenyl)-2-methylpyridin-3-yl)ureido)benzoate]
inhibition at 10 µM (IGROV1): < 10% | inhibition at 10 µM (MALME-3M): < 10% | inhibition at 10 µM (PC-3): < 10%

Cc1nc(-c2ccc(F)cc2)ccc1NC(=O)Nc1ccc2c(c1)OCO2 [Compound 5d, 1-(Benzo[d][1, 3]dioxol-5-yl)-3-(6-(4-fluorophenyl)-2-methylpyridin-3-yl)urea]
inhibition at 10 µM (IGROV1): < 10% | inhibition at 10 µM (MALME-3M): < 10% | inhibition at 10 µM (PC-3): < 10%

Cc1nc(-c2ccc(Cl)cc2)ccc1NC(=O)Nc1cccc(C(F)(F)F)c1 [Compound 5e, 1-(6-(4-Chlorophenyl)-2-methylpyridin-3-yl)-3-(3-(trifluoromethyl)phenyl)urea]
inhibition at 10 µM (IGROV1): < 10% | inhibition at 10 µM (MALME-3M): < 10% | inhibition at 10 µM (PC-3): 20%

COc1ccc(NC(=O)Nc2ccc(-c3ccc(Cl)cc3)nc2C)cc1 [Compound 5f, 1-(6-(4-Chlorophenyl)-2-methylpyridin-3-yl)-3-(4-methoxyphenyl) urea]
inhibition at 10 µM (IGROV1): < 10% | inhibition at 10 µM (MALME-3M): < 10% | inhibition at 10 µM (PC-3): < 10%

Cc1nc(-c2ccc(Cl)cc2)ccc1NC(=O)Nc1ccc2c(c1)OCO2 [Compound 5g, 1-(Benzo[d][1,3]dioxol-5-yl)-3-(6-(4-chlorophenyl)-2-methylpyridin-3-yl)urea]
inhibition at 10 µM (IGROV1): < 10% | inhibition at 10 µM (MALME-3M): < 10% | inhibition at 10 µM (PC-3): < 10%

Cc1nc(-c2cccs2)ccc1NC(=O)Nc1ccc(F)cc1 [Compound 5h, 1-(4-Fluorophenyl)-3-(2-methyl-6-(thiophen-2-yl)pyridin-3-yl)urea]
inhibition at 10 µM (IGROV1): < 10% | inhibition at 10 µM (MALME-3M): < 10% | inhibition at 10 µM (PC-3): 19%

Cc1nc(-c2cccs2)ccc1NC(=O)Nc1ccc(Cl)cc1 [Compound 5i, 1-(4-Chlorophenyl)-3-(2-methyl-6-(thiophen-2-yl)pyridin-3-yl)urea]
inhibition at 10 µM (IGROV1): < 10% | inhibition at 10 µM (MALME-3M): < 10% | inhibition at 10 µM (PC-3): < 10%

CCOC(=O)c1ccc(NC(=O)Nc2ccc(-c3cccs3)nc2C)cc1 [Compound 5j, Ethyl 4-(3-(2-methyl-6-(thiophen-2-yl)pyridin-3-yl)ureido)benzoate]
inhibition at 10 µM (IGROV1): < 10% | inhibition at 10 µM (MALME-3M): < 10% | inhibition at 10 µM (PC-3): 52%
